Patent US20090246293A1 (priority 2008, published 2009)
Where two headings read alike, the source gives them in different places.

Assays:
Assay type in all cases: in vivo
[1] = system: Pseudoperonospora cubensis (PSPECU); test: Droplet application on cucumber leaf, growth chamber (Examples 5a-d); settings: for % disease at 100 ppm of substance alone: substance alone 100 ppm; for % disease at 500 ppm of substance alone: substance alone 500 ppm, untreated check 91%; for % disease at 1000 ppm of substance alone: substance alone 1000 ppm
Protocol: Examples 5a through 5d were conducted in growth chambers on cucumber plants. Cucumbers (Cucumis sativus cv Bush Pickle Hybrid #901261) were grown from seed in 5 cm by 5 cm pots containing MetroMix™ growth medium (Scotts, Marysville, Ohio) and maintained in a glasshouse with supplementary light sources to provide a 14 hour photoperiod at 24-29° C. until the plants were in the 2-3 true leaf stage of growth and the oldest leaf was fully expanded.
For examples 5a through 5d, described below, samples of mancozeb formulated as Dithane DG NT were dissolved in water to form a ½×dilution series. Mancozeb rates were 400, 200, 100 and 50 ppm. Samples of various aldehydes, amino acids, carboxylic acids, amines and alcohols were dissolved in acetone and then mixed with aqueous solutions of mancozeb. Attractant rates in the dilute solutions were 100, 200, 500 or 1000 ppm, depending on the experiment.
Mixtures of attractant or attractant derivative plus mancozeb or mancozeb alone were applied to cucumber as a row of 5 or 7.5 ul droplets using a multi-channel pipetting device. Five droplets spaced 1 cm apart were placed along the mid-rib of the expanded cucumber leaf with the first droplet being positioned at least 1-cm from the leaf apex. Each treatment was replicated three or four times, depending on the experiment. Two to three hours after applying the treatments when droplets had dried, plants were inoculated with a suspension of sporangia of a Pseudoperonospora cubensis (PSPECU) and incubated as described in the methods for sprayed tests. When symptoms were well developed in untreated check plants, the experiment was assessed visually using a template 2 cm wide and 7 cm long with the long axis centered on the mid-rib of the treated leaf.
Reduction in percent disease was calculated by subtracting percent disease on plants receiving a mixture of mancozeb plus the specified test substance from percent disease on plants receiving mancozeb alone. The results for examples 5a-5d are shown below in Tables 7-10; the reduction in percent disease was indicated as follows: […]

[2] = system: Plasmopara viticola (PLASVI); settings: for % disease at 500 ppm of substance alone PLASVI: substance alone 500 ppm, untreated check 95
[3] = system: Phytophthora infestans (PHYTIN); settings: for % disease at 500 ppm of substance alone PHYTIN: substance alone 500 ppm, untreated check 95
[4] = substance 100 ppm with mancozeb 200 ppm vs mancozeb alone, Table 9
[5] = substance 500 ppm with mancozeb 200 ppm vs mancozeb alone, Table 8
[6] = substance 500 ppm with mancozeb 6.25 ppm (Dithane DGNT), foliar spray, inoculated 2 to 3 hours after treatment
[7] = substance 500 ppm with mancozeb 25 ppm (Dithane DGNT), foliar spray, inoculated 2 to 3 hours after treatment
[8] = substance 100 ppm with mancozeb 200 ppm vs mancozeb alone, Table 10
[9] = substance 200 ppm with mancozeb 50 ppm vs mancozeb alone, cucumber
[10] = substance 1000 ppm with mancozeb 50 ppm vs mancozeb alone, cucumber
[11] = aldehyde derivative 100 ppm with mancozeb, Table 17
[12] = fungicide with Formulation I at 100 ppm, Table 19

SMILES: CCC(C=O)CC [2-ethylbutyraldehyde]
- Reduction in % Disease [1, 4]: x (0-20% reduction in percent disease)
- % disease at 100 ppm of substance alone ([1]; untreated check 92%, Table 9): 65%

SMILES: CCC(C)C=O (stereo not shown) [2-methylbutyraldehyde]
- Reduction in % Disease [1, 4]: x (0-20% reduction in percent disease)
- Reduction in % Disease [1, 5]: x (0-20% reduction in percent disease)
- % disease at 100 ppm of substance alone ([1]; untreated check 92%, Table 9): 98%
- % disease at 500 ppm of substance alone [1]: 74%
- Reduction in percent disease PLASVI [2, 6]: x (0-20% reduction in percent disease)
- % disease at 500 ppm of substance alone PLASVI [2]: 95%
- Reduction in percent disease PHYTIN [3, 7]: x (0-20% reduction in percent disease)
- % disease at 500 ppm of substance alone PHYTIN [3]: 95%

SMILES: CC(C)(C)CC=O [3,3-dimethylbutyraldehyde]
- Reduction in % Disease [1, 4]: x (0-20% reduction in percent disease)
- Reduction in % Disease [1, 5]: x (0-20% reduction in percent disease)
- % disease at 100 ppm of substance alone ([1]; untreated check 92%, Table 9): 96%
- % disease at 500 ppm of substance alone [1]: 75%
- Reduction in percent disease PLASVI [2, 6]: x (0-20% reduction in percent disease)
- % disease at 500 ppm of substance alone PLASVI [2]: 87%
- Reduction in percent disease PHYTIN [3, 7]: x (0-20% reduction in percent disease)
- % disease at 500 ppm of substance alone PHYTIN [3]: 95%

SMILES: CC(C)=CC=O [3-methyl-2-butenaldehyde]
- Reduction in % Disease [1, 4]: x (0-20% reduction in percent disease)
- Reduction in % Disease [1, 5]: x (0-20% reduction in percent disease)
- % disease at 100 ppm of substance alone ([1]; untreated check 92%, Table 9): 100%
- % disease at 500 ppm of substance alone [1]: 81%
- Reduction in percent disease PLASVI [2, 6]: xxx (36-50% reduction in percent disease)
- % disease at 500 ppm of substance alone PLASVI [2]: 95%
- Reduction in percent disease PHYTIN [3, 7]: x (0-20% reduction in percent disease)
- % disease at 500 ppm of substance alone PHYTIN [3]: 95%

SMILES: CCC(C)C(C)=O (stereo not shown) [3-methyl-2-pentanone]
- Reduction in % Disease [1, 8]: x (0-20% reduction in percent disease)
- % disease at 100 ppm of substance alone ([1]; untreated check 100%, Table 10): 100%

SMILES: CC(=O)CC(C)C [4-methyl-2-pentanone]
- Reduction in % Disease [1, 8]: x (0-20% reduction in percent disease)
- % disease at 100 ppm of substance alone ([1]; untreated check 100%, Table 10): 93%

SMILES: N[C@@H](CC(=O)O)C(=O)O [Aspartic acid]
- Reduction in % Disease [1, 9]: xx (21-35% reduction in percent disease)
- Reduction in % Disease [1, 10]: xx (21-35% reduction in percent disease)
- % disease at 1000 ppm of substance alone ([1]; untreated check 100%): 100%

SMILES: CC(C)C/C=N/N(C)c1ccccc1 [Compound AA]
- Reduction in percent disease PHYTIN [3, 11]: x (0-20% reduction in percent disease)

SMILES: CC(C)C/C=N/NC(=O)c1ccc(O)cc1 [Compound V]
- Reduction in percent disease PHYTIN [3, 11]: xx (21-35% reduction in percent disease)

SMILES: CC(C)C/C=N/N(Cc1ccccc1)Cc1ccccc1 [Compound W]
- Reduction in percent disease PHYTIN [3, 11]: xx (21-35% reduction in percent disease)

SMILES: C=CCON=CCC(C)C [Compound X]
- Reduction in percent disease PHYTIN [3, 11]: xx (21-35% reduction in percent disease)

SMILES: CC(C)CC=NOCc1ccccc1 [Compound Y]
- Reduction in percent disease PHYTIN [3, 11]: x (0-20% reduction in percent disease)

SMILES: CC(C)C/C=N/N1CCCCC1 [Compound Z]
- Reduction in percent disease PHYTIN [3, 11]: xx (21-35% reduction in percent disease)

SMILES: O=CCC1CC1 [Cyclopropylacetaldehyde]
- Reduction in % Disease [1, 4]: x (0-20% reduction in percent disease)
- Reduction in % Disease [1, 5]: x (0-20% reduction in percent disease)
- % disease at 100 ppm of substance alone ([1]; untreated check 92%, Table 9): 85%
- % disease at 500 ppm of substance alone [1]: 90%
- Reduction in percent disease PLASVI [2, 6]: xx (21-35% reduction in percent disease)
- % disease at 500 ppm of substance alone PLASVI [2]: 95%
- Reduction in percent disease PHYTIN [3, 7]: x (0-20% reduction in percent disease)
- % disease at 500 ppm of substance alone PHYTIN [3]: 95%

SMILES: O=[N+]([O-])c1cc(C(F)(F)F)c(Cl)c([N+](=O)[O-])c1Nc1ncc(C(F)(F)F)cc1Cl [Fluazinam, reference compound]
- Reduction in percent disease PLASVI [2, 12]: xxx (36-50% reduction in percent disease)
- Reduction in percent disease PHYTIN [3, 12]: xxx (36-50% reduction in percent disease)

SMILES: N[C@@H](CCC(=O)O)C(=O)O [Glutamic acid]
- Reduction in % Disease [1, 9]: xx (21-35% reduction in percent disease)
- Reduction in % Disease [1, 5]: x (0-20% reduction in percent disease)
- Reduction in % Disease [1, 10]: x (0-20% reduction in percent disease)
- % disease at 500 ppm of substance alone [1]: 90%
- % disease at 1000 ppm of substance alone ([1]; untreated check 100%): 100%
- Reduction in percent disease PLASVI [2, 6]: xxx (36-50% reduction in percent disease)
- % disease at 500 ppm of substance alone PLASVI [2]: 93%
- Reduction in percent disease PHYTIN [3, 7]: xx (21-35% reduction in percent disease)
- % disease at 500 ppm of substance alone PHYTIN [3]: 95%

SMILES: CC(C)CCO [Isoamyl alcohol]
- Reduction in % Disease [1, 9]: xx (21-35% reduction in percent disease)
- Reduction in % Disease [1, 10]: x (0-20% reduction in percent disease)
- % disease at 1000 ppm of substance alone ([1]; untreated check 100%): 100%

SMILES: CC(C)CCN [Isoamyl amine]
- Reduction in % Disease [1, 9]: xxx (36-50% reduction in percent disease)
- Reduction in % Disease [1, 10]: xxx (36-50% reduction in percent disease)
- % disease at 1000 ppm of substance alone ([1]; untreated check 100%): 100%

SMILES: CC(C)CO [Isobutanol]
- Reduction in % Disease [1, 9]: x (0-20% reduction in percent disease)
- Reduction in % Disease [1, 5]: x (0-20% reduction in percent disease)
- Reduction in % Disease [1, 10]: xxxx (>50% reduction in percent disease)
- % disease at 500 ppm of substance alone [1]: 95%
- % disease at 1000 ppm of substance alone ([1]; untreated check 100%): 100%
- Reduction in percent disease PLASVI [2, 6]: xxxx (>50% reduction in percent disease)
- % disease at 500 ppm of substance alone PLASVI [2]: 78%
- Reduction in percent disease PHYTIN [3, 7]: xxx (36-50% reduction in percent disease)
- % disease at 500 ppm of substance alone PHYTIN [3]: 95%

SMILES: CC(C)C=O [Isobutyraldehyde]
- Reduction in % Disease [1, 4]: x (0-20% reduction in percent disease)
- % disease at 100 ppm of substance alone ([1]; untreated check 92%, Table 9): 97%

SMILES: CC(C)CCC(=O)O [Isocaproic acid]
- Reduction in % Disease [1, 9]: xxx (36-50% reduction in percent disease)
- Reduction in % Disease [1, 5]: x (0-20% reduction in percent disease)
- Reduction in % Disease [1, 10]: xxx (36-50% reduction in percent disease)
- % disease at 500 ppm of substance alone [1]: 88%
- % disease at 1000 ppm of substance alone ([1]; untreated check 100%): 100%
- Reduction in percent disease PLASVI [2, 6]: xxx (36-50% reduction in percent disease)
- % disease at 500 ppm of substance alone PLASVI [2]: 93%
- Reduction in percent disease PHYTIN [3, 7]: xxx (36-50% reduction in percent disease)
- % disease at 500 ppm of substance alone PHYTIN [3]: 95%

SMILES: CC(C)CC(=O)O [Isovaleric acid]
- Reduction in % Disease [1, 9]: xx (21-35% reduction in percent disease)
- Reduction in % Disease [1, 10]: xx (21-35% reduction in percent disease)
- % disease at 1000 ppm of substance alone ([1]; untreated check 100%): 100%

SMILES: CON=C(C(=O)OC)c1ccccc1CON=C(C)c1cccc(C(F)(F)F)c1 [Trifloxystrobin, reference compound]
- Reduction in percent disease PLASVI [2, 12]: x (0-20% reduction in percent disease)
- Reduction in percent disease PHYTIN [3, 12]: x (0-20% reduction in percent disease)

SMILES: CCCCC=O [Valeraldehyde]
- Reduction in % Disease [1, 4]: x (0-20% reduction in percent disease)
- Reduction in % Disease [1, 5]: x (0-20% reduction in percent disease)
- % disease at 100 ppm of substance alone ([1]; untreated check 92%, Table 9): 93%
- % disease at 500 ppm of substance alone [1]: 94%
- Reduction in percent disease PLASVI [2, 6]: x (0-20% reduction in percent disease)
- % disease at 500 ppm of substance alone PLASVI [2]: 95%
- Reduction in percent disease PHYTIN [3, 7]: x (0-20% reduction in percent disease)
- % disease at 500 ppm of substance alone PHYTIN [3]: 95%
